Test results taken from PubChem BioAssay (NCI).
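1) Cells in 96-well plates. 2) Compound, 48 h, 5 concentrations. 3) Linear interpolation between surrounding doses. 4) Unreached endpoint = highest concentration. Definition used: TGI = concentration required for complete inhibition of growth.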

How the values were obtained:
Test in all cases: NCI-60 cell line screen, 48 h
786-0 renal = test system: 786-0 renal
A549 NSCLC = test system: A549 NSCLC
BT-549 breast = test system: BT-549 breast
CCRF-CEM leukemia = test system: CCRF-CEM leukemia
COLO 205 colon = test system: COLO 205 colon
DU-145 prostate = test system: DU-145 prostate
HCC-2998 colon = test system: HCC-2998 colon
HCT-116 colon = test system: HCT-116 colon
HCT-15 colon = test system: HCT-15 colon
HL-60(TB) leukemia = test system: HL-60(TB) leukemia
HOP-62 NSCLC = test system: HOP-62 NSCLC
HOP-92 NSCLC = test system: HOP-92 NSCLC
HT29 colon = test system: HT29 colon
IGROV1 ovarian = test system: IGROV1 ovarian
K-562 leukemia = test system: K-562 leukemia
KM12 colon = test system: KM12 colon
LOX IMVI melanoma = test system: LOX IMVI melanoma
M14 melanoma = test system: M14 melanoma
MCF7 breast = test system: MCF7 breast
MDA-MB-231 breast = test system: MDA-MB-231 breast
MDA-MB-435 = test system: MDA-MB-435
MDA-N = test system: MDA-N
MOLT-4 leukemia = test system: MOLT-4 leukemia
NCI-H23 lung = test system: NCI-H23 lung
NCI-H460 lung = test system: NCI-H460 lung
NCI-H522 lung = test system: NCI-H522 lung
NCI/ADR-RES ovarian = test system: NCI/ADR-RES ovarian
OVCAR-3 ovarian = test system: OVCAR-3 ovarian
OVCAR-4 ovarian = test system: OVCAR-4 ovarian
OVCAR-5 ovarian = test system: OVCAR-5 ovarian
OVCAR-8 ovarian = test system: OVCAR-8 ovarian
PC-3 prostate = test system: PC-3 prostate
RPMI-8226 leukemia = test system: RPMI-8226 leukemia
RXF 393 renal = test system: RXF 393 renal
SF-268 CNS = test system: SF-268 CNS
SF-295 CNS = test system: SF-295 CNS
SF-539 CNS = test system: SF-539 CNS
SK-MEL-28 melanoma = test system: SK-MEL-28 melanoma
SK-MEL-5 melanoma = test system: SK-MEL-5 melanoma
SK-OV-3 ovarian = test system: SK-OV-3 ovarian
SN12C renal = test system: SN12C renal
SNB-19 CNS = test system: SNB-19 CNS
SNB-75 CNS = test system: SNB-75 CNS
SR leukemia = test system: SR leukemia
SW-620 colon = test system: SW-620 colon
T-47D breast = test system: T-47D breast
U251 CNS = test system: U251 CNS
UACC-257 melanoma = test system: UACC-257 melanoma
UACC-62 melanoma = test system: UACC-62 melanoma
UO-31 renal = test system: UO-31 renal

Measured: TGI

COc1ccc(-c2nc(-c3cnccn3)n(Cc3ccccc3)n2)cc1
> 100 µM: all assays above
